The values that follow come from PubChem BioAssay (NCI).

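96-well plates; 48 h exposure; 5 concentrations. Endpoints by linear interpolation between flanking doses. Not reached: highest tested concentration assigned. Definition used: TGI = concentration required for complete inhibition of growth.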

Assay in all cases: NCI tumour cell line growth inhibition, 48 h
Assay [1] concerns BT-549 breast.
The test system of assay [2] is OVCAR-3 ovarian.
The test system of assay [3] is SF-268 CNS.
In assay [4] the test system is A549 NSCLC.
In assay [5] the test system is HT29 colon.
The test system of assay [6] is HCT-116 colon.
In assay [7] the test system is OVCAR-8 ovarian.
For assay [8], the system named is COLO 205 colon.
Assay [9] deals with MCF7 breast.
Assay [10] has as its system SNB-19 CNS.
The test system of assay [11] is SK-MEL-2 melanoma.
The subject of assay [12] is PC-3 prostate.
In assay [13] the test system is SNB-75 CNS.
Assay [14] has as its system UO-31 renal.

In the case of `c1ccc([P+](c2ccccc2)(c2ccccc2)C2c3ccccc3-c3ccccc32)cc1`, the TGI in assay [1] is 7.44 µM; in assay [2], 5.68 µM; in assay [3], 9.37 µM; in assay [4] it was 14.3 µM; in [5] it was 4.04 µM; in assay [6], 2.39 µM. Moreover, the TGI in [7] was determined as 10.1 µM; in assay [8], 2.63 µM; in assay [9], 10 µM; in [10] it was 10.3 µM; in assay [11] it was 3.87 µM; in [12], 5.46 µM. For the same compound, the values for the TGI in [13] and in [14] were 7.06 µM and 8.03 µM, respectively.
Consider `O=C(N/N=C/C=C/c1ccc([N+](=O)[O-])o1)c1ccc(C(=O)N/N=C/C=C/c2ccc([N+](=O)[O-])o2)cc1`, for which the TGI was more than 100 µM in [1]; more than 100 µM in [2]; more than 58.5 µM in assay [3]; more than 100 µM in assay [4]; more than 100 µM in [5]; 25.7 µM in assay [6]. The TGI in [7] was 27.7 µM; in [8], more than 100 µM; in assay [9], more than 100 µM; in assay [10] it was more than 100 µM; in assay [11], more than 100 µM; in [12], more than 52.3 µM. Further, the TGI in assay [13] and in assay [14] was more than 100 µM each time.
For `CN(C)c1ccc(/C=C/c2cc(-c3ccccc3)[n+](C)n2-c2ccccc2)cc1`, the TGI in assay [1] is 0.613 µM; in [2], 17.2 µM; in assay [3] it was 4.77 µM; in assay [4], 23.2 µM; in assay [5], more than 100 µM; in assay [6] it was 14.1 µM. The TGI is 0.42 µM in assay [8]; more than 33.3 µM in assay [9]; 11.3 µM in assay [10]; 0.953 µM in assay [11]; 3.27 µM in assay [12]; 2.37 µM in assay [13]. Also, the TGI in assay [14] stood at 6.66 µM.
Regarding `O=c1oc2ccc3ccccc3c2cc1-c1nc2ccc([N+](=O)[O-])cc2o1`, the TGI was more than 95 µM in [1]; more than 100 µM in assay [2]; more than 90.2 µM in [3]; more than 79.1 µM in assay [4]; more than 100 µM in assay [5]; more than 100 µM in assay [6]. Further, the TGI was more than 100 µM in assay [7]; more than 100 µM in [8]; more than 31.4 µM in [9]; more than 28.6 µM in assay [10]; more than 100 µM in [11]; more than 100 µM in assay [12]. Besides, the TGI in assay [13] was more than 100 µM; in assay [14], more than 92.1 µM.
Regarding `[N-]=[N+]=CC(=O)CCC(=O)N(c1ccccc1)c1ccccc1`, the TGI in [1], in assay [2], in assay [3], in assay [4], in [5] and in [6] was more than 10 µM throughout. Moreover, the TGI in [7], in assay [9], in [10], in assay [11], in assay [12] and in assay [13] was more than 10 µM each time. This compound also returned a TGI in assay [14] of more than 10 µM.
In the case of `COC(=O)C1=NN2c3ccccc3CN([C@@H](C)c3ccccc3)C(=O)[C@@H]2[C@H]1c1ccccc1`, the TGI in assay [1], in [2], in [3], in [4], in assay [5] and in assay [6] was more than 100 µM in each case. Besides, the TGI in assay [7], in assay [8], in assay [9], in assay [10], in assay [11] and in assay [12] was more than 100 µM in each case. For the same compound, the TGI in [13] and in assay [14] was more than 100 µM each time.
For the compound `COc1cc2c[n+](C)c3c(c2cc1OC)Cc1cc2c(cc1-3)OCO2`, the TGI in [1], in assay [2], in assay [3], in assay [4], in assay [5] and in assay [6] was more than 100 µM each time. Also, the TGI in assay [7], in assay [8], in [9], in [10], in assay [11] and in assay [12] was more than 100 µM each time. For the same compound, the TGI in [13] and in assay [14] was more than 100 µM throughout.
For the compound `O=C1c2ccccc2C(=O)c2c(NCCCN3CCOCC3)ccc(NCCCN3CCOCC3)c21`, the TGI in [1] was found to be 21.6 µM; in [2], 40.3 µM; in assay [3] it was 20.9 µM; in assay [4], 16.2 µM; in [5], 12.7 µM; in [6] it was 10.4 µM. Also, the TGI in assay [7] was found to be 14.1 µM; in assay [9], 24.4 µM; in [10], 41 µM; in assay [11] it was 25.5 µM; in [12], 12.9 µM; in assay [13] it was 10.7 µM. The compound also returned a TGI in assay [14] of 17.4 µM.
Regarding `CCCCCCCCC/C=C1/CC(CO)(COC(=O)c2ccccc2)OC1=O` (stereo not given), the TGI in [1] came out at 27.1 µM; in [2] it was 31.2 µM; in assay [3], 29.8 µM; in assay [4], 26.7 µM; in assay [5] it was 31.6 µM; in assay [6] it was 56.2 µM. The TGI in assay [8] turned out to be 11.8 µM; in assay [9] it was 30.5 µM; in [10], 29.1 µM; in [11], 32.4 µM; in [12], 23.1 µM; in assay [13], 22.1 µM. In assay [14], this compound gave a TGI of 27.2 µM.
In the case of `C#CC1NC(=O)C1N(CC)CC` (stereo not given), the TGI in [1], in assay [2], in assay [3], in assay [5], in assay [6] and in assay [7] was more than 100 µM each time. Besides, the TGI in [8], in [9], in assay [10], in assay [11], in assay [12] and in [13] was more than 100 µM throughout. This compound gave a TGI in assay [14] of more than 100 µM.
